From patent publication US20260262643A1, “HERBICIDAL BENZOXAZINES” (FMC CORPORATION, priority 2022, published 2026)

Columns and labels:
blackgrass [1] = test: Test A preemergence; assay type: in vivo, Alopecurus myosuroides
Summary of the method: (§1)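 Loam/sand soil; pre-em directed soil spray at planting, post-em spray at 1–2 leaf (2–10 cm). Compound in non-phytotoxic solvent + surfactant. Greenhouse 10 d; visual injury vs untreated, 0 = no effect, 100 = complete control.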

corn [2] = test: Test A preemergence; assay type: in vivo, Zea mays
Summary of the method: as §1

foxtail, giant [3] = test: Test A preemergence; assay type: in vivo, Setaria faberi
Summary of the method: as §1

goosegrass [4] = test: Test A preemergence; assay type: in vivo, Eleusine indica
Summary of the method: as §1

kochia [5] = test: Test A preemergence; assay type: in vivo, Bassia scoparia
Summary of the method: as §1

oat, wild [6] = test: Test A preemergence; assay type: in vivo, Avena fatua
Summary of the method: as §1

pigweed, palmer [7] = test: Test A preemergence; assay type: in vivo, Amaranthus palmeri
Summary of the method: as §1

ragweed [8] = test: Test A preemergence; assay type: in vivo, Ambrosia artemisiifolia
Summary of the method: as §1

ryegrass, Italian [9] = test: Test A preemergence; assay type: in vivo, Lolium multiflorum
Summary of the method: as §1

soybean [10] = test: Test A preemergence; assay type: in vivo, Glycine max
Summary of the method: as §1

wheat [11] = test: Test A preemergence; assay type: in vivo, Triticum aestivum
Summary of the method: as §1

blackgrass [12] = test: Test A postemergence; assay type: in vivo, Alopecurus myosuroides
Summary of the method: as §1

corn [13] = test: Test A postemergence; assay type: in vivo, Zea mays; conditions: postemergence, 10 days; for Plant response rating, Corn: visual injury, 0 to 100 scale (0 no effect, 100 complete control)
Summary of the method: as §1

foxtail, giant [14] = test: Test A postemergence; assay type: in vivo, Setaria faberi; conditions: postemergence, 10 days; for Plant response rating, Foxtail, Giant: visual injury, 0 to 100 scale (0 no effect, 100 complete control)
Summary of the method: as §1

goosegrass [15] = test: Test A postemergence; assay type: in vivo, Eleusine indica; conditions: postemergence, 10 days; for Plant response rating, Goosegrass: visual injury, 0 to 100 scale (0 no effect, 100 complete control)
Summary of the method: as §1

kochia [16] = test: Test A postemergence; assay type: in vivo, Bassia scoparia; conditions: postemergence, 10 days; for Plant response rating, Kochia: visual injury, 0 to 100 scale (0 no effect, 100 complete control)
Summary of the method: as §1

oat, wild [17] = test: Test A postemergence; assay type: in vivo, Avena fatua; conditions: postemergence, 10 days; for Plant response rating, Oat, Wild: 500 g ai/ha, visual injury, 0 to 100 scale (0 no effect, 100 complete control)
Summary of the method: as §1

pigweed, palmer [18] = test: Test A postemergence; assay type: in vivo, Amaranthus palmeri; conditions: postemergence, 10 days; for Plant response rating, Pigweed, Palmer: 500 g ai/ha, visual injury, 0 to 100 scale (0 no effect, 100 complete control)
Summary of the method: as §1

ragweed [19] = test: Test A postemergence; assay type: in vivo, Ambrosia artemisiifolia; conditions: postemergence, 10 days; for Plant response rating, Ragweed: 500 g ai/ha, visual injury, 0 to 100 scale (0 no effect, 100 complete control)
Summary of the method: as §1

ryegrass, Italian [20] = test: Test A postemergence; assay type: in vivo, Lolium multiflorum; conditions: postemergence, 10 days; for Plant response rating, Ryegrass, Italian: 500 g ai/ha, visual injury, 0 to 100 scale (0 no effect, 100 complete control)
Summary of the method: as §1

soybean [21] = test: Test A postemergence; assay type: in vivo, Glycine max; conditions: postemergence, 10 days; for Plant response rating, Soybean: 500 g ai/ha, visual injury, 0 to 100 scale (0 no effect, 100 complete control)
Summary of the method: as §1

wheat [22] = test: Test A postemergence; assay type: in vivo, Triticum aestivum; conditions: postemergence, 10 days; for Plant response rating, Wheat: 500 g ai/ha, visual injury, 0 to 100 scale (0 no effect, 100 complete control)
Summary of the method: as §1

horseweed = test: Test A postemergence; assay type: in vivo, Erigeron canadensis; conditions: postemergence, 10 days; for Plant response rating, Horseweed: visual injury, 0 to 100 scale (0 no effect, 100 complete control)
Summary of the method: as §1

barnyardgrass = test: Test B flooded paddy test; assay type: in vivo, Echinochloa crus-galli; conditions: 250 g ai/ha, Flood, 13 days, 0 to 100 scale (0 no effect, 100 complete control)
Summary of the method: (§2)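 Plants at the 2-leaf stage were flooded to 3 cm above the soil, and test compounds were applied directly into the paddy water, with that depth held throughout. After 13 days in a greenhouse, injury was rated visually against untreated controls on a 0–100 scale (100 = complete control).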

ducksalad = test: Test B flooded paddy test; assay type: in vivo, Heteranthera limosa; conditions: 250 g ai/ha, Flood, 13 days, 0 to 100 scale (0 no effect, 100 complete control)
Summary of the method: as §2

rice = test: Test B flooded paddy test; assay type: in vivo, Oryza sativa; conditions: 250 g ai/ha, Flood, 13 days, 0 to 100 scale (0 no effect, 100 complete control)
Summary of the method: as §2

sedge, umbrella = test: Test B flooded paddy test; assay type: in vivo, Cyperus difformis; conditions: 250 g ai/ha, Flood, 13 days, 0 to 100 scale (0 no effect, 100 complete control)
Summary of the method: as §2

[23] = 125 g ai/ha, visual injury after 10 days, 0 to 100 scale, 0 is no effect, 100 is complete control
[24] = 500 g ai/ha, 0 to 100 scale (0 no effect, 100 complete control), 10 days
[25] = 125 g ai/ha, 0 to 100 scale, 0 no effect, 100 complete control

For C[C@H]1CN(C(=O)c2cc(Cl)cc(-n3cncn3)c2)c2cccc(Cl)c2O1 [Compound 81], the “Plant response rating, Blackgrass” value (blackgrass [1]; [23]) was 30, the “Plant response rating, Blackgrass” value (blackgrass [1]; [24]) was 60 and the “Plant response rating, Corn” value (corn [2]; [23]) was 0. For the same compound, the “Plant response rating, Corn” value (corn [2]; [24]) was 0, the “Plant response rating, Foxtail, Giant” value (foxtail, giant [3]; [23]) was 20 and the “Plant response rating, Foxtail, Giant” value (foxtail, giant [3]; [24]) was 90. The “Plant response rating, Goosegrass” value (goosegrass [4]; [23]) was 70, the “Plant response rating, Goosegrass” value (goosegrass [4]; [24]) was 90 and the “Plant response rating, Kochia” value (kochia [5]; [23]) was 0. The “Plant response rating, Kochia” value (kochia [5]; [24]) was 30, the “Plant response rating, Oat, Wild” value (oat, wild [6]; [23]) was 50 and the “Plant response rating, Oat, Wild” value (oat, wild [6]; [24]) was 80. The “Plant response rating, Pigweed, Palmer” value (pigweed, palmer [7]; [23]) was 30, the “Plant response rating, Pigweed, Palmer” value (pigweed, palmer [7]; [24]) was 80 and the “Plant response rating, Ragweed” value (ragweed [8]; [23]) was 0. The “Plant response rating, Ragweed” value (ragweed [8]; [24]) was 0, the “Plant response rating, Ryegrass, Italian” value (ryegrass, Italian [9]; [23]) was 50 and the “Plant response rating, Ryegrass, Italian” value (ryegrass, Italian [9]; [24]) was 80. For the same compound, the “Plant response rating, Soybean” value (soybean [10]; [23]) was 0, the “Plant response rating, Soybean” value (soybean [10]; [24]) was 0 and the “Plant response rating, Wheat” value (wheat [11]; [23]) was 10. For the same compound, the “Plant response rating, Wheat” value (wheat [11]; [24]) was 10, the “Blackgrass plant response rating” value (blackgrass [12]; 125 g ai/ha, postemergence, 10 days, 0 to 100 scale, 0 no effect, 100 complete control) was 0 and the “Plant response rating, Blackgrass” value (blackgrass [12]; 500 g ai/ha, postemergence, 10 days, visual injury, 0 to 100 scale (0 no effect, 100 complete control)) was 60. The “Corn plant response rating” value (corn [13]; [25]) was 0, the “Plant response rating, Corn” value (corn [13]; 500 g ai/ha) was 50 and the “Foxtail, Giant plant response rating” value (foxtail, giant [14]; [25]) was 20. The “Plant response rating, Foxtail, Giant” value (foxtail, giant [14]; 500 g ai/ha) was 90, the “Goosegrass plant response rating” value (goosegrass [15]; [25]) was 10 and the “Plant response rating, Goosegrass” value (goosegrass [15]; 500 g ai/ha) was 30. The “Kochia plant response rating” value (kochia [16]; [25]) was 50, the “Plant response rating, Kochia” value (kochia [16]; 500 g ai/ha) was 90 and the “Oat, Wild plant response rating” value (oat, wild [17]; [25]) was 10. For the same compound, the “Plant response rating, Oat, Wild” value (oat, wild [17]) was 20, the “Pigweed, Palmer plant response rating” value (pigweed, palmer [18]; [25]) was 60 and the “Plant response rating, Pigweed, Palmer” value (pigweed, palmer [18]) was 90. The “Ragweed plant response rating” value (ragweed [19]; [25]) was 20, the “Plant response rating, Ragweed” value (ragweed [19]) was 20 and the “Ryegrass, Italian plant response rating” value (ryegrass, Italian [20]; [25]) was 30. The “Plant response rating, Ryegrass, Italian” value (ryegrass, Italian [20]) was 100, the “Soybean plant response rating” value (soybean [21]; [25]) was 100 and the “Plant response rating, Soybean” value (soybean [21]) was 100. For the same compound, the “Wheat plant response rating” value (wheat [22]; [25]) was 10, the “Plant response rating, Wheat” value (wheat [22]) was 20 and the “Horseweed plant response rating” value (horseweed; [25]) was 0. The “Plant response rating, Horseweed” value (horseweed; 500 g ai/ha) was 0, the “Plant response rating, Barnyardgrass” value (barnyardgrass) was 0 and the “Plant response rating, Ducksalad” value (ducksalad) was 0. The “Plant response rating, Rice” value (rice) was 0 and the “Plant response rating, Sedge, Umbrella” value (sedge, umbrella) was 0.

In the case of CCc1ccc(-n2cncn2)cc1C(=O)N1C[C@H](C)Oc2c(Cl)cccc21 [Compound 79], the “Plant response rating, Blackgrass” value (blackgrass [1]; [23]) is reported as 50, the “Plant response rating, Blackgrass” value (blackgrass [1]; [24]) is reported as 70 and the “Plant response rating, Corn” value (corn [2]; [23]) is reported as 20. For the same compound, the “Plant response rating, Corn” value (corn [2]; [24]) was 40, the “Plant response rating, Foxtail, Giant” value (foxtail, giant [3]; [23]) was 100 and the “Plant response rating, Foxtail, Giant” value (foxtail, giant [3]; [24]) was 100. The “Plant response rating, Goosegrass” value (goosegrass [4]; [23]) was 100, the “Plant response rating, Goosegrass” value (goosegrass [4]; [24]) was 100 and the “Plant response rating, Kochia” value (kochia [5]; [23]) was 20. The “Plant response rating, Kochia” value (kochia [5]; [24]) was 40, the “Plant response rating, Oat, Wild” value (oat, wild [6]; [23]) was 90 and the “Plant response rating, Oat, Wild” value (oat, wild [6]; [24]) was 80. For the same compound, the “Plant response rating, Pigweed, Palmer” value (pigweed, palmer [7]; [23]) was 40, the “Plant response rating, Pigweed, Palmer” value (pigweed, palmer [7]; [24]) was 100 and the “Plant response rating, Ragweed” value (ragweed [8]; [23]) was 0. For the same compound, the “Plant response rating, Ragweed” value (ragweed [8]; [24]) was 30, the “Plant response rating, Ryegrass, Italian” value (ryegrass, Italian [9]; [23]) was 60 and the “Plant response rating, Ryegrass, Italian” value (ryegrass, Italian [9]; [24]) was 100. The “Plant response rating, Soybean” value (soybean [10]; [23]) was 60, the “Plant response rating, Soybean” value (soybean [10]; [24]) was 90 and the “Plant response rating, Wheat” value (wheat [11]; [23]) was 10. For the same compound, the “Plant response rating, Wheat” value (wheat [11]; [24]) was 50, the “Plant response rating, Blackgrass” value (blackgrass [12]; 125 g ai/ha, postemergence, 10 days, visual injury, 0 to 100 scale (0 no effect, 100 complete control)) was 80 and the “Plant response rating, Blackgrass” value (blackgrass [12]; 500 g ai/ha, Postemergence, 0 to 100 scale) was 80. The “Plant response rating, Corn” value (corn [13]; 125 g ai/ha) was 40, the “Plant response rating, Corn” value (corn [13]; 500 g ai/ha) was 80 and the “Plant response rating, Foxtail, Giant” value (foxtail, giant [14]; 125 g ai/ha) was 90. For the same compound, the “Plant response rating, Foxtail, Giant” value (foxtail, giant [14]; 500 g ai/ha) was 90, the “Plant response rating, Goosegrass” value (goosegrass [15]; 125 g ai/ha) was 20 and the “Plant response rating, Goosegrass” value (goosegrass [15]; 500 g ai/ha) was 80. The “Plant response rating, Kochia” value (kochia [16]; 125 g ai/ha) was 30, the “Plant response rating, Kochia” value (kochia [16]; 500 g ai/ha) was 60 and the “Plant response rating, Oat, Wild” value (oat, wild [17]) was 80. For the same compound, the “Plant response rating, Pigweed, Palmer” value (pigweed, palmer [18]) was 90, the “Plant response rating, Ragweed” value (ragweed [19]) was 50 and the “Plant response rating, Ryegrass, Italian” value (ryegrass, Italian [20]) was 100. For the same compound, the “Plant response rating, Soybean” value (soybean [21]) was 100, the “Plant response rating, Wheat” value (wheat [22]) was 50 and the “Plant response rating, Horseweed” value (horseweed; 125 g ai/ha) was 0. The “Plant response rating, Horseweed” value (horseweed; 500 g ai/ha) was 20, the “Plant response rating, Barnyardgrass” value (barnyardgrass) was 0 and the “Plant response rating, Ducksalad” value (ducksalad) was 45. For the same compound, the “Plant response rating, Rice” value (rice) was 0 and the “Plant response rating, Sedge, Umbrella” value (sedge, umbrella) was 98.
